According to patent publication EP4015040A1, “METHOD FOR TREATING BLOOD DISEASES” (Fundación para la Formación e Investigación Sanitarias de …, priority 2020, dated 2022):

Target: T1, telomerase (Danio rerio, UniProt A2THE9)
T1 sequence (A2THE9 1-1098): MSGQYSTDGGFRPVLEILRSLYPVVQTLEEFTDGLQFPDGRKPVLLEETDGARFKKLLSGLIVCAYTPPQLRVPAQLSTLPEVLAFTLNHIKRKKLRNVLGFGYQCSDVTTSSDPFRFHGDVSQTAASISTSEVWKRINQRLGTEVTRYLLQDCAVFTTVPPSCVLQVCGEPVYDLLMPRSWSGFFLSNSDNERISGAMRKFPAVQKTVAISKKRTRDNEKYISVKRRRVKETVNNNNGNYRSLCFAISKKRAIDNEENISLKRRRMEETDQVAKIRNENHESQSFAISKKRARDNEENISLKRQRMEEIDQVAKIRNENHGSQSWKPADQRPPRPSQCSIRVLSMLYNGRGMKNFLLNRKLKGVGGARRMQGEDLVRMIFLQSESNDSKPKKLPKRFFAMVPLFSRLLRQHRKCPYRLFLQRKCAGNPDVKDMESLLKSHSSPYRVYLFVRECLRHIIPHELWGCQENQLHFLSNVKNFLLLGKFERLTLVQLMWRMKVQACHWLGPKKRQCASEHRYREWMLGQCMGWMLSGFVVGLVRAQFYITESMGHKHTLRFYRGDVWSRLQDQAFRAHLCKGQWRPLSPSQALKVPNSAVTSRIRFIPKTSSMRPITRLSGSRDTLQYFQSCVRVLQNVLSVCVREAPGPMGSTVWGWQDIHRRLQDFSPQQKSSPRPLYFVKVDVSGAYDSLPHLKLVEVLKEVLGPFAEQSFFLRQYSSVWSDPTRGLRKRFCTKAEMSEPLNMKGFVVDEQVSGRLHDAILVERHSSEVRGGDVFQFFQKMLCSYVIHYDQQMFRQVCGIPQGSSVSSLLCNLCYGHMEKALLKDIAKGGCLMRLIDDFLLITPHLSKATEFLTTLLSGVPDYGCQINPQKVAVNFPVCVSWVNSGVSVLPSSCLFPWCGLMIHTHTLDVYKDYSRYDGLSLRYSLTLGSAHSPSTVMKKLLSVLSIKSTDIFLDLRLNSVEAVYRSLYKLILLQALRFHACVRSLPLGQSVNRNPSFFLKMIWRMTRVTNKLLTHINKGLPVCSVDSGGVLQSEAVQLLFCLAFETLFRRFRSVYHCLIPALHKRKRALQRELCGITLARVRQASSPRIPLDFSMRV
Experiment: Telomerase activity assay (Q-TRAP) in protein extracts of microinjected larvae
Type: in vivo
Conditions: zebrafish; 20 µM microinjected, larvae collected at 48 hpf; read-out: reduction of telomerase activity

inhibition at 20 µM: > 50%
SMILES: C/C(=C\C(=O)Nc1ccccc1C(=O)O)c1ccc2ccccc2c1 [BIBR1532]
